Assay results from ChEMBL document CHEMBL4842355, “Improved potency of pyridin-2(1H)one derivatives for the treatment of mechanical allodynia” (Eur J Med Chem, 2021).

What was measured:
[1] = target: T1, Mitogen-activated protein kinase 14 (Homo sapiens, UniProt Q16539); assay: Inhibition of p38 alpha (unknown origin) assessed as residual activity at 1 uM relative to control
[2] = target: T1, Mitogen-activated protein kinase 14; assay: Inhibition of p38 alpha (unknown origin)
Rattus norvegicus = assay: Anti-allodynic activity in complete freund's adjuvant-induced rat inflammatory pain model assessed as inhibition of inflammatory mechanical allodynia at 10 uM, ic administered 30 min before CFA injection and measured after 120 mins by Von Frey filament assay relative to control; type: functional; settings: 2.5 h, time 150 min
[3] = target: T1, Mitogen-activated protein kinase 14; assay: Inhibition of p38 alpha (unknown origin) at 1 uM relative to control

T1 sequence (Q16539 whole entry): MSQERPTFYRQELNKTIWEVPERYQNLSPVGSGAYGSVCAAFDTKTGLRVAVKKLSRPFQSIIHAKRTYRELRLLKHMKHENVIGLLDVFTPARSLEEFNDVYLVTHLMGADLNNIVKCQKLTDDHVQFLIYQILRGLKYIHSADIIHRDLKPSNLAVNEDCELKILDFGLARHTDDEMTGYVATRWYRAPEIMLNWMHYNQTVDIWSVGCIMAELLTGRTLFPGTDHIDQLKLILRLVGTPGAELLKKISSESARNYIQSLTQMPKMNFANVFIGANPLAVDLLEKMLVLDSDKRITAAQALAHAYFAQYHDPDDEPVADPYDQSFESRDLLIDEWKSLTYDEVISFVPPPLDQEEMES

Row | Compound | Activity [1] | IC50 [2] | inhibition in vivo at 10 µM (Rattus norvegicus) | inhibition [3]
1 | O=c1[nH]cc(Nc2cccc([N+](=O)[O-])c2)cc1-c1cccc2[nH]ccc12 | 73.9% | – | – | –
2 | O=c1[nH]cc(Nc2ccccc2)cc1-c1cccc2[nH]ccc12 | 59% | – | – | –
3 | O=c1[nH]cc(Nc2ccc(F)cc2)cc1-c1cccc2[nH]ccc12 | 39% | 400 nM | > 80% | –
4 | O=c1[nH]cc(Nc2cccc(Br)c2)cc1-c1cccc2[nH]ccc12 | 31% | 700 nM | – | –
5 | CCOC(=O)c1ccc(Nc2c[nH]c(=O)c(-c3cccc4[nH]ccc34)c2)cc1 | 86% | – | – | –
6 | O=c1[nH]cc(Nc2ccc([N+](=O)[O-])cc2)cc1-c1cccc2[nH]ccc12 | 93% | – | 98% | –
7 | O=c1[nH]cc(Nc2ccccc2)cc1-c1ccccc1Br | 59% | – | 65% | 41%
8 | COc1ccc(Nc2c[nH]c(=O)c(-c3cccc4[nH]ccc34)c2)cc1 | 59% | – | 16% | –
9 | O=c1[nH]cc(Nc2ccccc2F)cc1-c1cccc2[nH]ccc12 | 28% | – | – | 72%
10 | O=c1[nH]cc(Nc2cccc(O)c2)cc1-c1cccc2[nH]ccc12 | 34% | 1000 nM | – | –
11 | Cc1ccccc1Nc1c[nH]c(=O)c(-c2cccc3[nH]ccc23)c1 | 33% | 1100 nM | > 80% | –
12 | COc1cccc(Nc2c[nH]c(=O)c(-c3cccc4[nH]ccc34)c2)c1 | 50% | – | > 80% | –
13 | O=c1[nH]cc(Nc2cccnc2)cc1-c1cccc2[nH]ccc12 | 64% | – | – | –
14 | O=c1[nH]cc(Nc2ccccn2)cc1-c1cccc2[nH]ccc12 | 70% | – | > 80% | –
15 | O=c1[nH]cc(Nc2ccc(Br)cc2)cc1-c1cccc2[nH]ccc12 | 43% | 2400 nM | – | –
16 | O=c1[nH]cc(Nc2ccncc2)cc1-c1cccc2[nH]ccc12 | 67% | – | 100% | 33%
17 | O=c1[nH]cc(Nc2cccc(F)c2)cc1-c1cccc2[nH]ccc12 | 47% | 1400 nM | > 80% | –
18 | CCOC(=O)c1cccc(Nc2c[nH]c(=O)c(-c3cccc4[nH]ccc34)c2)c1 | 81% | – | > 80% | –
19 | CCOC(=O)c1ccccc1Nc1c[nH]c(=O)c(-c2cccc3[nH]ccc23)c1 | 104% | – | – | –
20 | COc1ccccc1Nc1c[nH]c(=O)c(-c2cccc3[nH]ccc23)c1 | 50% | – | > 80% | –
21 | O=c1[nH]cc(Nc2ccccc2Br)cc1-c1cccc2[nH]ccc12 | 45% | – | – | –
22 | O=c1[nH]cc(Nc2ccccc2[N+](=O)[O-])cc1-c1cccc2[nH]ccc12 | 92.3% | – | > 80% | –
